Tests used:
[1] = tested on: human liver organoids; assay: Long-term expansion (passaging) of human liver organoids; type: cell-based
Experimental: Human liver cells isolated by collagenase dissociation were dissociated to single cell, counted and 3000 or 10000 cells were seeded per well in a 48 well plate. Mouse liver culture medium (ERFHNic) or medium supplemented with A8301 or A8301 and BMP7 or A8301 and BMP7 and Forskolin (FSK) was overlaid as indicated and organoids were allowed to grow. The cultures were split every week 7-10 days at a ratio of 1:4-1:6 dilution.
Human liver organoids were seeded in mouse medium supplemented with A8301 and with one of the CAMP activators as indicated in FIG. 4. Cholera toxin was used at a concentration of 100 ng/ml. Only the cultures that were treated with CAMP activators were able to be expanded >2 months (P8).
Liver cells were isolated by collagenase digestion as follows: tissue (0.5-1 cm^3) was minced, rinsed 2× with DMEM (Gibco) 1% FCS and incubated with the digestion solution (2.5 mg/ml collagenase D (Roche)+0.1 mg/ml DNase I (Sigma) in EBSS (Hyclone, Thermoscientific), for […] at 37° C. The digestion was stopped by adding cold DMEM 1% FCS and the suspension was then filtered through a 70 um Nylon cell strainer and spun 5 min at 300-400 g. The pellet was resuspended in DMEM 1% FCS and kept cold. Any material retained on the strainer was further digested for 10 min in Accutase (Innovative Cell Technologies) at 37° C. Then, the digestion was stopped and the cells were collected as before. The different fractions (collagenase and accutase) were mixed and washed with cold Advanced DMEM/F12 and spun at 300-400 g for 5 min. The cell pellet was mixed with Matrigel (BD bioscience) and 3000-10000 cells were seeded per well in a 48 well/plate. After Matrigel had solidified, culture medium was added. Culture media was based on AdDMEM/F12 (Invitrogen) supplemented with N2 and B27 without retinoic acid (both from Gibco), 1.25 mM N-Acetylcysteine (Sigma). 10 nM gastrin (Sigma) and the growth factors: 50 ng/ml EGF (Peprotech), 10% RSPO1 conditioned media (home-made), 100 ng/ml FGF10 (Peprotech). 25 ng/ml HGF, 10 mM Nicotinamide (Sigma), 5 uM TGF-beta inhibitor (A83.01 (Tocris)) and 10 uM FSK (Tocris). For the establishment of the culture, the first 3 days after isolation the medium was supplemented with 25 ng/ml Noggin (Peprotech), 30% Wnt CM (home-made prepared as described in (Barker and Huch 2010)), 10 uM Rock inhibitor (Y27632) and hES Cell cloning Recovery solution (Stemgent). Then, the medium was changed into a medium without Noggin, Wnt. Y27632, hES Cell cloning Recovery solution (Stemgent) while 25 ng/ml BMP7 (Peprotech) were supplemented on top. One week-10 days organoids were removed from the Matrigel, mechanically dissociated into small fragments, and transferred to fresh Matrigel. Passage was performed in 1:4-1:8 split ratio once per week for at least 6 months. […]

[2] = tested on: LGR5 expression in human liver cultures; assay: qPCR analysis of LGR5 expression; type: cell-based; conditions: 4 week old cultures, presence vs absence of FSK
Experimental: (§1) Lgr5 expression was analysed in cultures grown in our defined culture medium by immunofluorescence and flow cytometry analysis. (FIG. 5A) Confocal image of a human liver organoid showing that the organoids are formed by epithelial derived cells positive for EPCAM (blue). The stem cell marker Lgr5 (green) was restricted to a subset of cells within the organoid, while the Wnt target gene EPHB2 (red) was broadly expressed, but colocalized with LGR5 as expected. Staining was performed on single cells isolated from a culture that had been cultured for >4 weeks in the presence or absence of FSK. Only in the presence of FSK Lgr5 cells could be readily detected as a 1-3% of the culture population. Experiment was performed in 2 independent human liver donor cultures. (FIG. 5C) qPCR analysis of the expression of LGR5 in 4 week old cultures treated in the presence or absence of FSK.

[3] = tested on: Lgr5 cells in human liver cultures; assay: Flow cytometry analysis of LGR5 positive cells; type: cell-based; conditions: cultured >4 weeks in the presence of FSK; not readily detected in absence; 2 donor cultures
Experimental: as §1
Exponentially growing organoids were cultured for at least 5 days in the presence or absence of FSK. Then, organoids were dissociated into single cells using Accutase, resuspended in DMEM+2% FBS and incubated with Lgr5 antibody (AP2745d, Abgent) for 45 min. […] Cells were analyzed with a BD FACS Calibur (Becton-Dickinson); FSC: propidium iodide was used to label dead cells for exclusion and pulse-width gating to exclude cell doublets.

[4] = tested on: cAMP pathway; conditions: compared with 8-BR-cAMP and forskolin; cited from earlier work
[5] = tested on: human liver organoid cultures (ALB, CYP3A4 expression); conditions: hepatocytes
[6] = culture medium supplemented with A8301 combined with FSK, split ratio 1:4-1:6 every 7-10 days

Cc1cccc(-c2nn(C(=S)Nc3ccccc3)cc2-c2ccnc3ccccc23)n1 [A83-01, 3-(6-Methyl-2-pyridinyl)-N-phenyl-4-(4-quinolinyl)-1H-pyrazole-1-carbothioamide]
long-term expansion outcome ([1]; medium supplemented with A8301 only (no FSK)): arrested proliferation after some weeks in culture

C=C[C@@]1(C)CC(=O)[C@]2(O)[C@@]3(C)[C@@H](O)CCC(C)(C)[C@@H]3[C@H](O)[C@H](OC(C)=O)[C@@]2(C)O1 [FSK, forskolin]
number of passages the cultures were able to grow [1, 6]: > 18 passages | time the cultures were able to grow [1, 6]: > 5 months | LGR5 expression levels, upregulation upon treatment [2]: 2-3 × | Lgr5 cells as % of the culture population [3]: 1-3%

C=C[C@@]1(C)CC(=O)[C@]2(O)[C@@]3(C)[C@@H](O)CCC(C)(C)[C@@H]3[C@H](OC(=O)CCN(C)C)[C@H](OC(C)=O)[C@@]2(C)O1.Cl [NKH477]
relative potency as cAMP pathway activator [4]: generally more potent than 8-BR-CAMP and forskolin

B1: BMP7: BMP pathway activator; induces the phosphorylation of SMAD1 and SMAD5 (protein, UniProt P18075 293-431, looked up)
Bone morphogenetic protein 7: STGSKQRSQNRSKTPKNQEALRMANVAENSSSDQRQACKKHELYVSFRDLGWQDWIIAPEGYAAYYCEGECAFPLNSYMNATNHAIVQTLVHFINPETVPKPCCAPTQLNAISVLYFDDSSNVILKKYRNMVVRACGCH
long-term expansion outcome ([1]; medium supplemented with BMP7 and A8301 (no FSK)): arrested proliferation after some weeks in culture | effect on expression of hepatocyte markers ALB and CYP3A4 [5]: slightly facilitated the expression of hepatocyte markers ALB and CYP3A4
